Source: PubChem BioAssay AID1918945 (Molecular Pharmacology Branch, DTP, NCI, 2023)

System: 883617-216-R-J1-PDC complex spheroid viability
Experiment: Anticancer human tumor 883617-216-R-J1-PDC patient-derived bladder carcinoma cell line growth inhibition
Settings: for IC50: curve of first compound; for viability, T/C: stronger effect = lower value
Outline: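 Complex spheroids of tumor cells with HUVEC and human MSCs, exposed to iadademstat combined with other agents. Each agent tested in half-log steps from near clinical Cmax (else 10 microM top), DMSO ≤0.25%.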

[1] = second compound 0.1 µM, first compound 0.0316 µM
[2] = second compound 0.1 µM, first compound 0.1 µM
[3] = second compound 0.1 µM, first compound 0.316 µM
[4] = second compound 0.1 µM, first compound 1 µM
[5] = second compound 0.1 µM, first compound 3.16 µM
[6] = second compound 0.1 µM, first compound 10 µM
[7] = second compound 0.316 µM, first compound 0.0316 µM
[8] = second compound 0.316 µM, first compound 0.1 µM
[9] = second compound 0.316 µM, first compound 0.316 µM
[10] = second compound 0.316 µM, first compound 1 µM
[11] = second compound 0.316 µM, first compound 3.16 µM
[12] = second compound 0.316 µM, first compound 10 µM
[13] = second compound 1 µM, first compound 0.0316 µM
[14] = second compound 1 µM, first compound 0.1 µM
[15] = second compound 1 µM, first compound 0.316 µM
[16] = second compound 1 µM, first compound 1 µM
[17] = second compound 1 µM, first compound 3.16 µM
[18] = second compound 1 µM, first compound 10 µM
[19] = second compound 3.16 µM, first compound 0.0316 µM
[20] = second compound 3.16 µM, first compound 0.1 µM
[21] = second compound 3.16 µM, first compound 0.316 µM
[22] = second compound 3.16 µM, first compound 1 µM
[23] = second compound 3.16 µM, first compound 3.16 µM
[24] = second compound 3.16 µM, first compound 10 µM
[25] = second compound 10 µM, first compound 0.0316 µM
[26] = second compound 10 µM, first compound 0.1 µM
[27] = second compound 10 µM, first compound 0.316 µM
[28] = second compound 10 µM, first compound 1 µM
[29] = second compound 10 µM, first compound 3.16 µM
[30] = second compound 10 µM, first compound 10 µM
[31] = second compound 0.1 µM, first compound 0.00316 µM
[32] = second compound 0.1 µM, first compound 0.01 µM
[33] = second compound 0.316 µM, first compound 0.00316 µM
[34] = second compound 0.316 µM, first compound 0.01 µM
[35] = second compound 1 µM, first compound 0.00316 µM
[36] = second compound 1 µM, first compound 0.01 µM
[37] = second compound 3.16 µM, first compound 0.00316 µM
[38] = second compound 3.16 µM, first compound 0.01 µM
[39] = second compound 10 µM, first compound 0.00316 µM
[40] = second compound 10 µM, first compound 0.01 µM
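Further: exposure lasted seven days after three days of spheroid growth.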
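Wherever viability, T/C is given: 100% = DMSO vehicle control luminescence.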

| Compound | IC50 (second compound 0.1 µM) [nM] | IC50 (second compound 0.316 µM) [nM] | IC50 (second compound 1 µM) [nM] | IC50 (second compound 3.16 µM) [nM] | IC50 (second compound 10 µM) [nM] | viability, T/C [1] [%] | viability, T/C [2] [%] | viability, T/C [3] [%] | viability, T/C [4] [%] | viability, T/C [7] [%] | viability, T/C [8] [%] | viability, T/C [9] [%] | viability, T/C [10] [%] | viability, T/C [13] [%] | viability, T/C [14] [%] | viability, T/C [15] [%] | viability, T/C [16] [%] | viability, T/C [19] [%] | viability, T/C [20] [%] | viability, T/C [21] [%] | also measured |
| --- | --- | --- | --- | --- | --- | --- | --- | --- | --- | --- | --- | --- | --- | --- | --- | --- | --- | --- | --- | --- | --- |
| CC(C)c1c(-c2ccccc2)nc2c(C#N)c[nH]n2c1=O + NC1CCC(NC2CC2c2ccccc2)CC1 | > 10000 | > 10000 | > 10000 | > 10000 | > 10000 | 106 | 102 | 101 | 103 | 107 | 109 | 108 | 105 | 97.3 | 91.8 | 101 | 95 | 104 | 99.7 | 97.8 | viability, T/C [5]: 97.5%; viability, T/C [6]: 93.8%; viability, T/C [11]: 103%; viability, T/C [12]: 95%; viability, T/C [17]: 93.6%; viability, T/C [18]: 86%; viability, T/C [22]: 98.2%; viability, T/C [23]: 91.2%; viability, T/C [24]: 89.9%; viability, T/C [25]: 103%; viability, T/C [26]: 106%; viability, T/C [27]: 112%; viability, T/C [28]: 98.2%; viability, T/C [29]: 95.2%; viability, T/C [30]: 86.1% |
| CC1COCCN1c1cc(-c2ccnn2C)c2ccnc(-c3ccn[nH]3)c2n1 (stereo not given) + NC1CCC(NC2CC2c2ccccc2)CC1 | 39.5 | 32.1 | 33.8 | 44.3 | 45.8 | 55.7 | 41.2 | 33.5 | 31.5 | 53.6 | 40.4 | 34 | 30.8 | 50.4 | 43.8 | 35.1 | 28.4 | 51.3 | 47.2 | 36.1 | viability, T/C [31]: 85%; viability, T/C [32]: 62.2%; viability, T/C [33]: 89.8%; viability, T/C [34]: 62%; viability, T/C [35]: 81.8%; viability, T/C [36]: 60.2%; viability, T/C [37]: 76.3%; viability, T/C [38]: 59%; viability, T/C [22]: 28.3%; viability, T/C [39]: 88.4%; viability, T/C [40]: 66.7%; viability, T/C [25]: 52.7%; viability, T/C [26]: 45.5%; viability, T/C [27]: 32.1%; viability, T/C [28]: 25.5% |
| CC1COCCN1c1cc(C2(S(C)(=N)=O)CC2)nc(-c2ccnc3[nH]ccc23)n1 (stereo not given) + NC1CCC(NC2CC2c2ccccc2)CC1 | 1050 | 1130 | 1080 | 1350 | 1520 | 106 | 103 | 78.9 | 50.2 | 99.9 | 101 | 77.7 | 51.8 | 101 | 101 | 70.8 | 53.7 | 100 | 93 | 75.4 | viability, T/C [5]: 43.9%; viability, T/C [6]: 36.9%; viability, T/C [11]: 39.7%; viability, T/C [12]: 33%; viability, T/C [17]: 39%; viability, T/C [18]: 34.5%; viability, T/C [22]: 52.9%; viability, T/C [23]: 40.6%; viability, T/C [24]: 31.5%; viability, T/C [25]: 106%; viability, T/C [26]: 92.7%; viability, T/C [27]: 78.8%; viability, T/C [28]: 52%; viability, T/C [29]: 43.8%; viability, T/C [30]: 34.9% |
| COc1ccc([C@@H](O)c2cc(-c3ncnc4cc(N5CCOCC5)ccc34)c(F)cc2Cl)nn1 + NC1CCC(NC2CC2c2ccccc2)CC1 | 1200 | 1370 | 1320 | 1080 | 1560 | 97.8 | 90.3 | 72 | 50.2 | 103 | 90.8 | 73.6 | 53.2 | 101 | 91.3 | 83.2 | 52.7 | 97.6 | 93.2 | 73.7 | viability, T/C [5]: 38.2%; viability, T/C [6]: 20.7%; viability, T/C [11]: 38.5%; viability, T/C [12]: 19.2%; viability, T/C [17]: 35.1%; viability, T/C [18]: 21%; viability, T/C [22]: 51.7%; viability, T/C [23]: 32.1%; viability, T/C [24]: 21.9%; viability, T/C [25]: 100%; viability, T/C [26]: 93.2%; viability, T/C [27]: 70.2%; viability, T/C [28]: 56.3%; viability, T/C [29]: 41.4%; viability, T/C [30]: 19.8% |
| O=C(C=Cn1cnc(-c2cc(C(F)(F)F)cc(C(F)(F)F)c2)n1)NNc1cnccn1 + NC1CCC(NC2CC2c2ccccc2)CC1 | 18.8 | 17.6 | 11.4 | 17 | 20.7 | 36.3 | 32.7 | 28.9 | 26.9 | 39 | 31.3 | 29.7 | 28.1 | 36.5 | 32.7 | 28.1 | 26.2 | 44 | 33 | 29.6 | viability, T/C [31]: 87.4%; viability, T/C [32]: 65.9%; viability, T/C [33]: 102%; viability, T/C [34]: 60.6%; viability, T/C [35]: 87.4%; viability, T/C [36]: 51%; viability, T/C [37]: 99.5%; viability, T/C [38]: 55.4%; viability, T/C [22]: 27.2%; viability, T/C [39]: 99.2%; viability, T/C [40]: 63.2%; viability, T/C [25]: 40.7%; viability, T/C [26]: 36.8%; viability, T/C [27]: 31.8%; viability, T/C [28]: 29.5% |
